Test results taken from patent US20180271470A1, “METHODS FOR QUANTIFYING PANCREATIC BETA CELL FUNCTION AND MASS PROPERTIES WITH RADIOMANGANESE POSITRON EMISSION TOMOGRAPHY” (Wisconsin Alumni Research Foundation, priority 2017, published 2018).
Several values for one entry are separate records, joined by “and”; a condition that tells them apart may be missing. Equal values may be shown once. Values belong to the compound of their own block, whether it stands above or below them.

Assays:
[1] = primate models; cited from earlier work
[2] = dogs, previous studies; cited from earlier work
[3] = system: isolated ob/ob mouse islets; assay: Uptake of ^52Mn^2+ in isolated islets under stimulatory or inhibitory conditions; type: cell-based; conditions: low glucose (1 mM), 370 kBq ^52Mn^2+
Method: Mouse pancreatic islets were isolated by collagenase digestion. Briefly, mice were placed under shallow anesthesia and sacrificed via cervical dislocation. The mouse common bile duct was cannulized and 3-5 mL of an ice-cold solution containing type XI collagenase (0.5 mg/mL; Sigma Aldrich, St. Louis, Mo.) and bovine serum albumin (BSA; 0.2 mg/mL; Sigma Aldrich, St. Louis, Mo.) in Hank's balanced salt solution (HBSS; Invitrogen, Carlsbad, Calif.) was injected into the mouse pancreas. After inflation, the pancreas was removed, placed in a glass vial containing 5 mL of the collagenase solution, and incubated in a shaking water bath at 37° C. Samples were digested for approximately 30 min after which the digests were centrifuged at 50×g for 2 min and islet pellets were washed three times with 30 mL of an ice-cold BSA (0.2 mg/mL) in HBSS solution. The pellet was resuspended and islets handpicked into 35 mm petri dishes. Following isolation, islets were placed in RPMI1640 media supplemented with penicillin (100 U/mL; Invitrogen), streptomycin (100 μg/mL; Invitrogen), and FBS [10% (wt/vol); Sigma] and incubated overnight at 37° C. in a 5% CO2 atmosphere.
The uptake of ^52Mn^2+ by murine islets of Langerhans was determined under several stimulatory or inhibitory conditions. Batches of 50 islets were transferred into 0.45 μm filtered bottom 1 mL centrifuge vials (Thermo Fisher Scientific, Grand Island, N.Y.), 500 μL of Krebs-Ringer buffer (KRB: 118 mM NaCl, 5.4 mM KCl, 2.4 mM CaCl, 1.2 mM MgSO4, 1 mM […], 20 mM HEPES; pH 7.4) containing a low glucose concentration (1 mM D-glucose) were added and the islets incubated for 30 min at 37° C. After removing the supernatant following centrifugation at 50×g for 5 min, 250 μL of KRB containing glucose, diazoxide (50 μM; Tocris Biosciences, Bristol, UK), or tolbutamide (250 μM; Selleckchem, Houston, Tex.) were added, and the vials were spiked with 370 kBq (10 μCi) of ^52Mn^2+. After 15 min of incubation, the solutions were filtered and islets were washed three times with KRB. The ^52Mn^2+ radioactivity in the islet pellets were measured in an automated gamma counter (Perkin Elmer).

[4] = Dynamic PET of ^52Mn^2+ (rapid IV bolus or 30 min IV infusion) under isoflurane; type: in vivo, mice
Method: To acquire dynamic PET scans, mice were anesthetized with isoflurane and the lateral tail vein was catheterized. Simultaneous with the administration of approximately 1.7 MBq (50 μCi) of ^52Mn^2+ as a fast IV bolus, one-hour scans were recorded and list-mode files were binned into 46 frames (12×5 s, 6×10 s, 6×30 s, 10×60 s, 6×150 s, 6×300 s) and the images reconstructed using a non-scatter-corrected OSEM3D/MAP algorithm. In another study, 1.7 MBq (50 μCi) of ^52Mn^2 was continuously infused with a syringe pump (Kd Scientific, Model 780100) over a period of 30 min, starting at the beginning of the PET scan. List-mode files were framed into 30×2 min frames and reconstructed using the above-mentioned algorithm.

[5] = Static PET imaging of ^52Mn^2+ biodistribution in normal mice; type: in vivo, ICR mice
Method: The acquisition of PET images was performed in the Inveon μPET/μCT scanner (Siemens Preclinical Solutions, Knoxville, Tenn.). To study the long-term biodistribution and clearance of ^52Mn^2+ in the mouse body, approximately 3.7 MBq (100 μCi) of ^52Mn^2+ was injected intravenously (IV) in female ICR mice. […] Before each scan, mice were anesthetized with isoflurane (4% induction; 1% maintenance) and placed in the scanner in prone position. 30×10^6-40×10^6 coincidence events per mouse static PET scans were acquired (time window, 3.432 ns; energy window, 350-650 keV) and the PET images were reconstructed in Inveon Acquisition Workplace (Siemens Preclinical Solutions, Knoxville, Tenn.) workstation using a non-scatter-corrected three-dimensional Ordered Subset Expectation […]/Maximum a Posteriori (OSEM3D/MAP) algorithm. Region-of-interest (ROI) analysis was performed after organs were manually delineated on the PET images. Tissue uptake values were reported as standardized uptake value (SUV), which is normalized to whole body radiomanganese concentration.

[6] = Ex vivo ^52Mn^2+ biodistribution by gamma counting after last PET scan; type: in vivo; conditions: ICR mice, ex vivo gamma counting 13 days after injection
Method: Ex vivo biodistribution studies were performed in all groups of mice in order to validate the results of PET imaging and obtain a more complete biodistribution profile of ^52Mn^2+. Following the last imaging time point, mice were euthanized by C02 asphyxiation and the organs of interest were removed, wet-weighed, and counted on an automated gamma-counter (Wizard 2480, Perkin Elmer). The tissue uptake of ^52Mn^2+ was reported as SUV (mean±SD).

[7] = ^52Mn^2+ PET and biodistribution in STZ type-1 diabetes model; type: in vivo, ICR mice
Method: Type 1 diabetes was induced in female ICR mice via a single IP injection of 180 mg/kg streptozotocin (STZ; MP Biomedical, LLC, Santa Ana, Calif.), a toxin that selectively destroys pancreatic beta cell. The injectable STZ solution (12.5 mg/mL) was prepared freshly in phosphate buffered saline (PBS). The weight of each mouse was measured daily, and blood glucose levels were recorded every other day with a glucometer (TRUEresult, Trividia Health Inc., Fort Lauderdale, Fla.) using blood samples collected from the tail vein. Mice were considered diabetic after two consecutive blood glucose readings above 250 mg/dL and were used for PET imaging studies one week after the injection of STZ. To evaluate ^52Mn^2+ pancreatic uptake on diabetic mice, 0.74 MBq (20 μCi) of activity were administered IV and static PET images recorded one hour after administration of the tracer. Ex vivo biodistribution was carried out following PET acquisition.

[8] = Static PET imaging of ^52Mn^2+ biodistribution in normal mice; type: in vivo, ICR mice; conditions: healthy mice, IV, peaked within minutes following administration
[9] = ^52Mn^2+ PET in pre-type 2 diabetic ob/ob and lean C57BL/6J mice; type: in vivo
Text: Given the altered glucose metabolism in obese mice, we compared the pancreatic uptake of ^52Mn^2+ in lean (wild-type) and obese (ob/ob) mice on the C57BL/6J background. For PET imaging, 0.74 MBq (20 μCi) of ^52Mn^2+ was IV injected into obese mice or lean controls one hour prior to PET scan acquisition. Subsequent ^52Mn^2+ accumulation in the pancreas and other organs of interest was quantified.

[10] = molecular target: type 2 vesicular transporter (VMAT2) (Homo sapiens, UniProt Q05940); conditions: cited from earlier work
type 2 vesicular transporter (VMAT2), sequence (Q05940 whole entry, species assumed): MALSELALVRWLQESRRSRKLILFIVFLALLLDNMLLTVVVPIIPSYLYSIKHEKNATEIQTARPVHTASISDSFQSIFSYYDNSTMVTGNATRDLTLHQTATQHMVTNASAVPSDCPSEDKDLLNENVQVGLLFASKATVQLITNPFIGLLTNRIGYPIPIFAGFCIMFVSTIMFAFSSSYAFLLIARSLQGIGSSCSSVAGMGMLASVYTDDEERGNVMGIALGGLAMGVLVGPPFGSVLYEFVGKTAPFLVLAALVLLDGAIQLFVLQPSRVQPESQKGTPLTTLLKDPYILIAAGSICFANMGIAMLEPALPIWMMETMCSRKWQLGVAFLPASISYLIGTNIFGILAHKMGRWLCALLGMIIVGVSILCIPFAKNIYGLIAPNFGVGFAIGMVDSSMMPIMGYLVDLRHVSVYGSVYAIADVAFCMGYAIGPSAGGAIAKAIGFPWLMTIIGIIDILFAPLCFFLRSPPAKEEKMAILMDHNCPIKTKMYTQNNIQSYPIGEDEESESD

[11] = rapid IV bolus, isoflurane throughout, 1 h post injection
[12] = ICR mice, IV ^52Mn^2+, awake at injection, static PET 1 h post injection

SMILES: COc1cc2c(cc1O[11CH3])CCN1CC(CC(C)C)C(O)CC21 (stereo not drawn) [[^11C]-DTBZ, [^11C]-Dihydrotetrabenazine]
pancreatic uptake [1]: very low

SMILES: [54Mn] [Mn-54]
blood clearance [2]: ~0.8 min

^52Mn^2+ uptake in pancreas, continuous infusion ([4]; IV infusion over 30 min, isoflurane): 3.44±0.69 SUV
^52Mn^2+ uptake in kidney, continuous infusion ([4]; IV infusion over 30 min, isoflurane, 1 h post injection): 5.14±1.21 SUV
reduction in pancreatic uptake, dynamic vs static PET ([4]; rapid IV bolus under isoflurane vs awake injection, 1 h post injection): ~50%
time until uptake stabilized in organs of interest ([4]; rapid IV bolus, dynamic PET): within five minutes
blood circulation half-life ([4]; rapid IV bolus, from myocardial TAC of dynamic PET): 10.7 ± 3.5 s
^52Mn^2+ uptake in heart, dynamic PET [4, 11]: 2.60±0.41 SUV
^52Mn^2+ uptake in kidneys, dynamic PET [4, 11]: 7.81±0.51 SUV
^52Mn^2+ uptake in liver, dynamic PET [4, 11]: 5.16±1.46 SUV
^52Mn^2+ uptake in muscle, dynamic PET [4, 11]: 0.16±0.02 SUV
^52Mn^2+ uptake in pancreas, dynamic PET [4, 11]: 2.74±0.59 SUV
^52Mn^2+ uptake in heart (PET ROI) [5, 12]: 2.11±0.20 SUV
^52Mn^2+ uptake in kidneys (PET ROI) [5, 12]: 5.13±0.02 SUV
^52Mn^2+ uptake in liver (PET ROI) [5, 12]: 3.27±0.36 SUV and 3.27±0.34 SUV
^52Mn^2+ uptake in muscle (PET ROI) [5, 12]: 0.38±0.03 SUV
^52Mn^2+ uptake in pancreas (PET ROI) [5, 12]: 5.13±0.38 SUV and 5.13±0.36 SUV
^52Mn^2+ uptake in salivary glands (PET ROI) [5, 12]: 2.30±0.26 SUV
^52Mn^2+ uptake in salivary gland at subsequent time points ([5]; ICR mice, longitudinal PET after 1 h up to 13 days post injection): around 3 SUV
pancreas clearance half-life of ^52Mn^2+ ([5]; healthy mice, IV): approximately 8 days
^52Mn^2+ uptake in other organs (brain, lungs, bones, intestines, stomach, spleen) [6]: less than 0.5 SUV
^52Mn^2+ uptake in pancreas of diabetic mice (PET ROI) ([7]; STZ (180 mg/kg) diabetic ICR mice, 1 h post injection, normal mice 5.13±0.38 SUV): 2.04±0.81 SUV
decrease in pancreatic accumulation of ^52Mn^2+, ex vivo biodistribution ([7]; STZ-diabetic vs normal ICR mice): > 58%
reduction in the pancreatic accumulation of ^52Mn^2+ ([7]; STZ-induced type-1 diabetes model vs normal): ~60%
^52Mn^2+ uptake in the pancreas at peak [8]: 5-6 SUV
^52Mn^2+ uptake in liver, lean mice ([9]; lean C57BL/6J, 1 h): 3.40±0.73 SUV
^52Mn^2+ uptake in salivary gland, lean mice ([9]; lean C57BL/6J, 1 h): 3.11±1.05 SUV
^52Mn^2+ pancreatic uptake, lean mice ([9]; lean C57BL/6J, PET 1 h after administration): 4.89±0.68 SUV
^52Mn^2+ uptake in liver, obese mice ([9]; ob/ob C57BL/6J, 1 h): 3.68±0.25 SUV
^52Mn^2+ uptake in salivary gland, obese mice ([9]; ob/ob C57BL/6J, 1 h): 2.40±0.20 SUV
^52Mn^2+ pancreatic uptake, ob/ob mice ([9]; pre-type 2 diabetic ob/ob C57BL/6J, PET 1 h after administration): 7.27±1.03 SUV
SMILES: [52Mn+2] [^52Mn^2+]
^52Mn^2+ uptake by islets under resting conditions [3]: readily taken up

SMILES: COc1cc2c(cc1OCCCF)CCN1CC(CC(C)C)C(O)CC21 (stereo not drawn) [FP-(+)-DTBZ]
affinity for VMAT2 [10]: high affinity
